Data from patent publication US20070122870A1, “Method for water testing and devices and kit of components for use in such a method” (priority 2003, published 2007).
Entries after “also recorded” stand apart in the source; their conditions may differ.

What was measured:
Pseudomonas = test: ECOALERT deployment in controlled flow-through system, respiration (CTC fluorescence); type: cell-based; settings: after 72 hours; 50 ppb BPH, 5 ppb TBDE; 7.5° C.
Text: The experimental setup involved 16 tanks (4 animal species 4 exposure treatments) connected in a flow-through system with a direct intake of seawater from 80 m depth in the Stavanger fjord, outside the laboratory. For each one of the test animals, three tanks were connected to a chemostate system which maintained a constant concentration of each of the following chemicals: 50 ppb bisphenol A (BPH), 50 ppb diallyl phthalate (DAP), and 5 ppb tetrabromodiphenylether or PBDE-47 (TBDE). The forth tank had no chemical supply and was used as control. ECOALERT was deployed in the mussel tanks, one basket per tank. The water conditions in all the tanks were: 7.5° C. temperature, pH 7.78 and […].
Each deploying basket of ECOALERT was equipped with 3 dialysis tubes with Pseudomonas, 3 tubes filled with Vibrio natriegens and 3 dialysis tubes with medium-only without cells. Each dialysis tube was repeatedly sampled at 1, 24, 48 and 72 hours. Due to the low temperature of the water (7.5° C.) a low bacterial growth rate was expected and because of that the duration of the experiment was expanded to 72 hours. At every time-point, growth and respiration activity of the bacteria were measured as turbidity and CTC fluorescence respectively using the handheld CTC fluorometer/turbidimeter. […]

caged Pseudomonas sp. [1] = test: Growth limitation (OD) of caged bacteria in dialysis tubes; type: cell-based
Protocol: On the night before the experiment, a number of 2-litre HDPE bottles, one bottle per toxicity treatment, were filled with water (3/4 seawater 1-μm filtered, 1/4 distilled water). The bottles were kept at 15° C. stirring at low speed.
The dialysis tubes, which are supplied soaked in sodium azide, were rinsed throughly, refilled with distilled water and UV-irradiated for 10 minutes to ensure sterility.
Also the night before, a fresh culture of bacteria was inoculated from the original stock in liquid diluted medium.
Before starting the toxicity assay, the bottles were spiked with the contaminant and buffered to pH 7.3. At the same time, a fresh volume of diluted medium was inoculated from the culture grown overnight and kept for ˜2 hours at 15° C. until the growth rate picked up again and OD540 approached 0.005.
Then, the dialysis tubes were emptied of the water and four of them topped up with the bacterial culture, plus one blank tube with medium-only (no bacteria), and placed into the bottle to start the assay. Each bottle could hold 5 dialysis tubes floating upright.
The stirring was kept low and at time intervals samples were removed from the tubes with sterile pipettes to measure the different bacterial indicators.
(ix) The growth dynamics of toxic cultures of caged Pseudomonas sp. were studied. The effect of toxicity on the growth of caged bacteria was studied in several assays where different concentrations of contaminants were added to the water of the tanks.

caged Pseudomonas sp. [2] = test: Respiration indicator (CTC) in toxic caged cultures; type: cell-based; settings: caged toxicity assays
Text: Respiration. Respiration was estimated with the redox dye CTC (Polysciences) as values of fluorescent intracellular formazan.
(§1) (x) Bacterial sub-cellular indicators (DNA, respiration, membrane integrity and viability) were studied in toxic cultures of caged Pseudomonas sp.

V. natriegens [3] = test: LIVE/DEAD BacLight membrane integrity, closed cultures; type: cell-based, Vibrio natriegens; settings: closed culture
Protocol: (§2) (viii) Two ready-to-use commercial kits to assess cell viability (ProCheck™ Cell Viability Assay) and membrane integrity (LIVE/DEAD® BacLight™ Bacterial Viability Kit) were tested and adapted for using during ECOALERT experiments.
(§3) ProCheck™ is designed to measure the amount of viable, metabolising cells in a sample, and LIVE/DEAD® BacLight™ distinguish live and dead bacteria As a preliminary test, the two kits were tested in a volumetric series of mixtures of two bacterial types of V. natriegens: live, exponentially growing bacteria and dead bacteria killed by autoclaving an aliquot of the same culture. The colorimetric signal indicating cell viability (ProCheck™) and the fluorimetric signal indicating membrane integrity (LIVE/DEAD® BacLight™) increased linearly with the proportion of live bacteria in the mixture.

V. natriegens [4] = test: ProCheck cell viability assay, closed cultures; type: cell-based, Vibrio natriegens; settings: closed culture, compared with the non-toxic control
Protocol: as §2, §3

V. natriegens [5] = test: Growth dynamics (optical density, cell concentration) in closed cultures; type: cell-based, Vibrio natriegens; settings: closed culture; for bacterial growth (growth curve, growth rate, optical density, cell concentration): compared to the non-toxic control
Text: (ii) Sterile, 12-ml capacity, screw-capped, clear polystyrene test tubes (Starstedt) were selected as the most appropriate closed system for use in ECOALERT experiments. These test tubes are ideal for short-term cell culturing where aeration is not critical. Also, the optical density of the culture can be read as often as desired, by simply inserting the same tube in a spectrophotometer, thus avoiding contamination risks and reducing analysis time.
(viii) The effect of a range of contaminants on growth dynamics and sub-cellular bioindicators in closed cultures of V. natriegens was studied:
(xi) The sensitivity of cultures of V. natriegens to a range of contaminants in closed laboratory experimental systems was studied at specified toxic concentrations and time scales.

V. natriegens [6] = test: Respiration (CTC fluorescence) in closed cultures; type: cell-based, Vibrio natriegens; settings: closed culture; for respiration: compared to the non-toxic control
Protocol: (vi) The application of the redox dye CTC (5-cyano-2,3-ditolyl tetrazolium chloride, Polysciences Europe) was developed to direct fluorimetric determination of respiration in bacterial suspensions. […] Traditionally, CTC has been used with flow cytometry and epifluorescence microscopy, combined with DAPI to counterstain total cells. However, its application to bacterioplankton remains controversial.
An exponentially growing culture of V. natrigens was incubated with the redox dye CTC following the standard procedure (2.0 mM final concentration, 4 h at 28° C.) and samples were taken every 30 minutes to count total cells and CTC+ cells in the microscope.
(§4) (viii) The effect of a range of contaminants on growth dynamics and sub-cellular bioindicators in closed cultures of V. natriegens was studied: […]

V. natriegens [7] = test: DNA (thymidine uptake) and protein (leucine uptake) synthesis in closed cultures; type: cell-based, Vibrio natriegens; settings: closed culture; for DNA synthesis / protein synthesis: compared to the control
Protocol: (iv) The application of the 3H-leucine method of Smith and Azam (Marine Microbial. Food Webs. 6(2), 107-114, 1992) was developed and also used with 3H-thymidine to estimate bacterial production. The synthesis of DNA (thymidine uptake) and protein (leucine uptake) was studied in V. natriegens closed cultures. In non-toxic cultures the uptake of both radiotracers by the bacteria reaches maximal values between 4 and 8 hours of the experiment, coinciding with the log-phase of the growth curve.
as §4

caged Pseudomonas sp. [8] = test: Bacterial DNA indicator (PicoGreen) in toxic caged cultures; type: cell-based; settings: caged toxicity assays
Text: Bacterial DNA. To improve the detection of bacterial DNA in culture samples, the PicoGreen double-strand DNA (dsDNA) reagent (Molecular Probes) was used instead of DAPI. PicoGreen reagent is more sensitive to small changes in the DNA content of bacterial cultures, resulting in a good correlation with OD.
as §1

bacterial culture = test: ECOALERT assay, ratio respiration/growth (CTC/TRB); type: cell-based; settings: compared to the control
Protocol: Two bacterial endpoints were chosen based on the results from Example 2: growth and respiration. Growth is an endpoint at population level and is estimated by measuring in vivo optical density (OD) or turbidity (TRB). Respiration is an endpoint at subcellular level and is measured by the fluorescence emitted by actively respiring bacteria, using the CTC redox dye.
To assess OD, TRB and CTC as indicators of toxicity a series of ECOALERT assays were carried out on a wide range of chemical substances, with special attention to common pharmaceuticals but also including some contaminants cited in the OSPAR list for priority action (OSPAR 2000). The concentrations tested were based on toxicological and environmental levels, where this information was available.
Even when no clear effect could be observed in the CTC indicator alone, there was an advantage in using the bacterial indicators OD (or TRB) and CTC simultaneously. That was because it was possible to use the ratio respiration/growth, which is an estimator of the proportion of respiring or active bacteria in the population, as an indirect indicator of the health of the population.

[9] = compared with the non-toxic control

Q: Which bacterial respiration (Pseudomonas) does the source give for CC(C)(c1ccc(O)cc1)c1ccc(O)cc1 [BPH, bisphenol A] here?
A: clear negative effect; also recorded: had an impact on bacteria

Q: What does the source list for [Cd] [Cd, cadmium]?
A: growth limitation (caged Pseudomonas sp. [1]; 20 mg Cd/L, after 4 hours of exposure): 59%; growth limitation (caged Pseudomonas sp. [1]; lower Cd treatments): did not cause any clear limitation of bacterial growth; respiration as indicator of toxicity (caged Pseudomonas sp. [2]): most sensitive indicator of toxicity

Q: With [Cu] [Cu, copper] as the compound, how does the “membrane integrity (LIVE/DEAD BacLight)” value (V. natriegens [3]; [9]) read?
A: damage of membranes

Q: And the “cell viability (ProCheck)” value (V. natriegens [4])?
A: affecting cell viability

Q: What about the “bacterial growth (growth curve, growth rate, optical density, cell concentration)” value (“bacterial growth” below) (V. natriegens [5]) of the same compound?
A: notable slow down of the growth curve; also recorded: very conspicuous and instantaneous reduction

Q: What about the “bacterial growth” value (V. natriegens [5]; listed as copper) of the same compound?
A: nearly ceased

Q: And the respiration (V. natriegens [6])?
A: very conspicuous and instantaneous reduction

Q: And the respiration (V. natriegens [6]; listed as copper)?
A: nearly ceased

Q: What about the DNA synthesis (V. natriegens [7]) of the same compound?
A: nearly ceased

Q: What about the protein synthesis (V. natriegens [7]) of the same compound?
A: nearly ceased

Q: And the growth limitation (caged Pseudomonas sp. [1]; 20 mg/L, after 9 hours)?
A: 56%

Q: And the effect on growth (caged Pseudomonas sp. [1]; additions under 0.1 mg/L)?
A: enhancing effect on growth

Q: What about the growth limitation (caged Pseudomonas sp. [1]; assays 1 (doses 0.001-10 mg Cu/L) and 2 (doses 0.02-20 mg Cu/L)) of the same compound?
A: < 50%

Q: And the “DNA as indicator of toxicity” value (caged Pseudomonas sp. [8])?
A: could not detect limitation

Q: Which “bacterial growth” value (V. natriegens [5]) does the source give for Cl[C@H]1[C@H](Cl)[C@@H](Cl)[C@@H](Cl)[C@H](Cl)[C@H]1Cl [Lindane] here?
A: transient, rather subtle stimulation; also recorded: transient, faint stimulation

Q: What about the respiration (V. natriegens [6]) of the same compound?
A: transient, rather subtle stimulation; also recorded: transient, faint stimulation

Q: Which growth limitation (caged Pseudomonas sp. [1]; 5 mg/L, end of a 9-h assay) does the source give for [Ni] [Ni, nickel] here?
A: 51%

Q: What about the growth limitation (caged Pseudomonas sp. [1]; 20 mg/L, after 9 hours) of the same compound?
A: 69%

Q: What about the effect on growth (caged Pseudomonas sp. [1]; below 0.5 mg/L) of the same compound?
A: seemed to favour growth

Q: Oc1c(Cl)c(Cl)c(Cl)c(Cl)c1Cl [PCP] was tested. Which CTC/TRB ratio (bacterial culture) did it give?
A: loss of respiring cells

Q: What does the source list for c1ccc2c(c1)ccc1ccccc12 [Phenanthrene, phenanthrene]?
A: bacterial growth (growth curve, growth rate, optical density, cell concentration) (V. natriegens [5]): did not affect bacterial growth significantly; also recorded: no major effect; respiration (V. natriegens [6]): No effect; protein synthesis (V. natriegens [7]): doubled; also recorded: small initial stimulation; DNA synthesis rates higher than control (V. natriegens [7]; on average): 30%

Q: c1cc2ccc3cccc4ccc(c1)c2c34 [Pyrene, pyrene] was tested. Which “membrane integrity (LIVE/DEAD BacLight)” value (V. natriegens [3]; stationary phase) did it give?
A: loss of membrane integrity

Q: And the “bacterial growth” value (V. natriegens [5])?
A: no other effect was observed

Q: What about the increase in respiration (V. natriegens [6]; average) of the same compound?
A: 14%

Q: Which results are given for CC(C)(c1cc(Br)c(O)c(Br)c1)c1cc(Br)c(O)c(Br)c1 [TBBA]?
A: membrane integrity (LIVE/DEAD BacLight) (V. natriegens [3]; stationary phase): membrane damage; increase in cellular respiration (ratio respiration/optical density) (V. natriegens [6]; average): more than 90%; respiration (V. natriegens [6]): sudden and important increase in respiration; also recorded: notable increase of respiration

Q: Brc1cccc(Oc2ccc(Br)c(Br)c2Br)c1 [TBDE, tetrabromodiphenylether] was tested. Which bacterial respiration (Pseudomonas) did it give?
A: possible positive effect

Q: With NC(=O)N1c2ccccc2C=Cc2ccccc21 [carbamazepine, reference compound] as the compound, how does the CTC/TRB ratio (bacterial culture) read?
A: initial positive effect

Q: How did the growth limitation (caged Pseudomonas sp. [1]; 2 mg/L, 4 hours) turn out when [Pb] [lead] was run?
A: 52%

Q: And the “respiration as indicator of toxicity” value (caged Pseudomonas sp. [2])?
A: most sensitive indicator of toxicity

Q: With [Zn] [zinc] as the compound, how does the growth limitation (caged Pseudomonas sp. [1]; 50 mg/L, after 4 h) read?
A: 51%

Q: And the “toxicity / effect on growth” value (caged Pseudomonas sp. [1]; first experiment, doses between 0.05-5 mg/L)?
A: No significant toxicity; also recorded: positive effect in most of the treatments

Q: And the “DNA as indicator of toxicity” value (caged Pseudomonas sp. [8])?
A: sensitive indicator of toxicity

Q: What does the source list for “dodecylbenzensulfonic acid sodium salt [detergent]”?
A: membrane integrity (LIVE/DEAD BacLight) (V. natriegens [3]; [9]): progressive damage of cellular membranes with time; membrane integrity (LIVE/DEAD BacLight) (V. natriegens [3]; stationary phase): deleterious effect on membranes; size of bacteria (V. natriegens [5]; compared to control bacteria, sodium salt): progressively reduced their size; also recorded: reduces; bacterial growth (growth curve, growth rate, optical density, cell concentration) (V. natriegens [5]; sodium salt): increased over the control; also recorded: seems to enhance; reduction in bacterial numbers (V. natriegens [5]; instant): 10 fold; respiration (V. natriegens [6]; sodium salt): contrary to that of the non-toxic control; also recorded: seems to enhance; reduction in respiration (V. natriegens [6]; instant): 10 fold; DNA synthesis (V. natriegens [7]): increased slightly over the control; protein synthesis (V. natriegens [7]; sodium salt): inhibited but seems to recover after 48 h

Q: What does the source list for mercury [Hg]?
A: growth limitation (caged Pseudomonas sp. [1]; 2 mg/L, 4 hours): Up to 60%; respiration as indicator of toxicity (caged Pseudomonas sp. [2]): most sensitive indicator of toxicity
